Several values for one entry are separate records, joined by “and”; a condition that tells them apart may be missing. Equal values may be shown once.
Experiments:
HsAPT1 [1] = biological target: T1, HsAPT1 (Homo sapiens, UniProt O75608); test: 4-NPO esterase activity assay, recombinant HsAPT1; assay type: biochemical; parameters: made in house; host or cells: E. coli BL21(DE3)pLysS
Text: (§1) We recently performed a phenotypic screen to identify small-molecule modulators of host cell invasion by the apicomplexan parasite T. gondii. The small-molecules in this directed screen were expected to covalently modify protein targets in an activity-dependent manner. Unexpectedly, this screen not only identified inhibitors of parasite invasion, but also compounds that enhanced host cell invasion. Enhancer compounds were all structurally similar substituted chloroisocoumarins. Using an alkynylated version of the lead enhancer compound (JCP174), we identified the phenotypically relevant target of the enhancer phenotype as the previously uncharacterized thioesterase TgPPT1 [12]. TgPPT1 is the orthologue of the human depalmitoylase HsAPT1, sharing 33% identity by BLAST analysis. […] Therefore, we screened a focused library of substituted chloroisocoumarins to identify compounds that inhibited HsAPT1 and HsAPT2 activity. […] To measure the enzymatic activity of recombinant HsAPT1 and HsAPT2, we used the previously reported substrate, 4-nitrophenyl octanoate (4-NPO), in which enzymatic cleavage of the ester linkage can be measured by UV/Vis spectroscopy upon release of 4-nitrophenolate (Fig 1A). Using this activity readout, we performed our screen with recombinant HsAPT1 and HsAPT2 using a focused library of 100 substituted chloroisocoumarins (Fig 1B). Compounds that produced >50% inhibition of either HsAPT1 or HsAPT2 activity relative to the DMSO control at 10 μM were then re-screened across a range of concentrations to determine in vitro IC50 values (Fig 1C and 1D). Compounds with IC50 values <10 μM for both HsAPT1 and HsAPT2 were scored as hits. According to these criteria, our screen achieved a hit rate of 7% (Table 1). […] We next tested the potency of JCP174 for both enzymes with increasing preincubation times from 30 minutes to 6 hours. The potency of JCP174 increased with longer pre-incubation times for both targets, indicating an irreversible covalent mechanism (S1 Table). […] (S1 Table).
(§2) The 4-nitropenhyl octanoate (4-NPO) activity assay was modified from Dekker et al.. Briefly, 50 μL 20 mM HEPES, 150 mM NaCl, 0.01% v/v Triton-X 100, pH 7.4 buffer with the indicated concentrations of inhibitor or buffer control was added to 96-well plates. To each well, 30 μL of recombinantly expressed enzyme diluted to 1 μM in 20 mM HEPES, 150 mM NaCl, 0.01% v/v Triton-X 100, pH 7.4 buffer was added. The inhibitor and enzyme reaction was incubated at 37°C for 30 minutes before 20 μL of 4-NPO (3.0 mM) was added to the reaction in 20 mM HEPES, 150 mM NaCl, 0.25% v/v Triton-X 100, pH 7.4 buffer. The reaction progress was measured using a Cytation 3 plate reader at 401 nm at 1-minute intervals for 40 minutes.

HsAPT2 [2] = biological target: T2, HsAPT2 (Homo sapiens, UniProt O95372); test: 4-NPO esterase activity assay, recombinant HsAPT2; assay type: biochemical; parameters: made in house; host or cells: E. coli BL21(DE3)pLysS
T2 sequence (O95372 whole entry): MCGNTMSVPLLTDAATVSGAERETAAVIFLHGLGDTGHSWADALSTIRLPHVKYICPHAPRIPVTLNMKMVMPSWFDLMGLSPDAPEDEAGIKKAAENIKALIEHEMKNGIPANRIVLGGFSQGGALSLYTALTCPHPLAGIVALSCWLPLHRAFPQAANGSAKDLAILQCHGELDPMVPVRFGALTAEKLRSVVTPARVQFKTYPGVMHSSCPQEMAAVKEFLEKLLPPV
Text: as §1, §2

TgPPT1 [3] = test: In-gel labeling of recombinant TgPPT1 with JCP174-BT; assay type: binding, Toxoplasma gondii; conditions: 1 μM probe
TgPPT1 [4] = assay type: cell-based, Toxoplasma gondii
[5] = test system: HsAPT1 and HsAPT2 in intact U-2 OS cells; test: Intact mammalian cell labeling, in-gel fluorescence; assay type: cell-based, human
HsAPT1 [6] = biological target: T1, HsAPT1; test: FP-rhodamine ABP competition labeling, U-2 OS (HsAPT1 band); assay type: cell-based; conditions: intact U-2 OS cells pretreated 1 hour, washed, lysates labeled with FP-rho
HsAPT2 [7] = biological target: T2, HsAPT2; test: FP-rhodamine ABP competition labeling, U-2 OS (HsAPT2 band); assay type: cell-based; conditions: intact U-2 OS cells pretreated 1 hour, washed, lysates labeled with FP-rho
[8] = rHsAPT1, 4-NPO substrate, 30 minutes preincubation at 37°C
[9] = rHsAPT2, 4-NPO substrate, 30 minutes preincubation at 37°C

T1 sequence (O75608 whole entry): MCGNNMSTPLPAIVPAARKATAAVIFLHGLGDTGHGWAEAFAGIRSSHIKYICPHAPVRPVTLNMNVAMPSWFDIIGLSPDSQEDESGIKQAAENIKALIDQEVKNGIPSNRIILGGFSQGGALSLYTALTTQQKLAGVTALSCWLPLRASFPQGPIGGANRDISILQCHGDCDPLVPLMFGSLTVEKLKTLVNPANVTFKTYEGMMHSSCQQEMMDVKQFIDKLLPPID

Row | IC50 (HsAPT1 [1]; [8]) | IC50 (HsAPT2 [2]; [9]) | SMILES | further results
1 | 1800 nM | 2900 nM | CCOc1oc(=O)c2cc(NC(=S)Nc3ccccc3)ccc2c1Cl [JCP154] | 
2 | 925 nM and 930 nM | 498 nM and 500 nM | C#CCCOc1oc(=O)c2cc(N)ccc2c1Cl [JCP174-alk, 3-(3-Butynoxy)-4-chloro-7-amino-isocoumarin] | 
3 | 1500 nM | 5200 nM | O=C(O)c1cccc(NC(=S)Nc2ccc3c(Cl)c(OCCBr)oc(=O)c3c2)c1 [JCP342] | 
4 | 1400 nM | 9100 nM | O=c1oc(OCCBr)c(Cl)c2ccc(NC(=S)Nc3ccccc3)cc12 [JCP343] | 
5 | 7100 nM | 8500 nM | O=C(O)c1ccc(NC(=S)Nc2ccc3c(Cl)c(OCCBr)oc(=O)c3c2)cc1 [JCP345] | 
6 | 1200 nM | 950 nM | CC(CBr)Oc1oc(=O)c2cc(N)ccc2c1Cl (stereo not shown) [JCP362] | 
7 | 310 nM | 320 nM | CCCCCCCCCC[C@@H]1C(=O)O[C@H]1CCc1ccc(OC)c(OC)c1 [Palmostatin B, palmostatin B, reference compound] | Competition for FP-rho labeling of HsAPT1 (HsAPT1 [6]): competed for the same two species; Competition for FP-rho labeling of HsAPT2 (HsAPT2 [7]): competed for the same two species; IC50 (HsAPT1 [1]; preincubation time 2 hr): 2500 nM; IC50 (HsAPT1 [1]; preincubation time 6 hr): 6800 nM; IC50 (HsAPT2 [2]; preincubation time 2 hr): 700 nM; IC50 (HsAPT2 [2]; preincubation time 6 hr): 1600 nM

Row | SMILES | IC50 (HsAPT1 [1]; [8]) | IC50 (HsAPT2 [2]; [9]) | further results
8 | O=c1oc(Cl)c(Cl)c2ccccc12 [DCI, dichloroisocoumarin, reference compound] | 1700 nM | 2700 nM | 
9 | COc1ccc(-c2ccc3n2[B-](F)(F)[N+]2=C(C)C(CCC(=O)NCCCn4cc(CCOc5oc(=O)c6cc(N)ccc6c5Cl)nn4)=C(C)C2=C3)cc1 [JCP174-BODIPY TMR] | 3000 nM | 1800 nM | Covalent labeling of active site mutant TgPPT1 S128A (TgPPT1 [3]; recombinant TgPPT1 S128A): did not label the active site mutant; Covalent labeling of wild-type TgPPT1 (TgPPT1 [3]; recombinant TgPPT1 WT): covalently modified; Labeling of TgPPT1 in intact T. gondii tachyzoites (TgPPT1 [4]): strong labeling of TgPPT1 in intact cells; Labeling of HsAPT1 and HsAPT2 in intact U-2 OS cells [5]: labeled APT1 and APT2 in intact cells
